Experimental data from the supplement of paper PMC12420376.

Tests used:
[1] = system: KURAMOCHI; test: drug sensitivity score (DSS2) on cancer cell count; higher = more sensitive; extreme values may be limits of the assay; settings: 72 h
In short: (§1)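 Ovarian cancer cells were grown alone or in 1:1 direct co-culture with lung or skin fibroblasts. They were plated onto 384-well plates pre-spotted acoustically with 528 approved and investigational compounds at 5 concentrations, then treated for 72 h. Cells were fixed, immunostained for CK8/18 with Hoechst, and imaged at 10× (4 fields) to count cancer cells. A drug sensitivity score (DSS2) was derived in Breeze from 4-parameter logistic fits, with screen quality checked by Z'.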

[2] = system: OVCAR8; test: as above; settings: 72 h
In short: as §1

[3] = co-cultured fibroblast: BJHTERT
[4] = co-cultured fibroblast: none (monoculture)

Row | Structure (SMILES) | drug sensitivity score [1, 3] [DSS] | drug sensitivity score ([1]; co-cultured fibroblast: WI38) [DSS] | drug sensitivity score [1, 4] [DSS] | drug sensitivity score [2, 3] [DSS] | drug sensitivity score ([2]; co-cultured fibroblast: WI38) [DSS] | drug sensitivity score [2, 4] [DSS]
1 | CO[C@@]12[C@H](COC(N)=O)C3=C(C(=O)C(C)=C(N)C3=O)N1C[C@@H]1N[C@@H]12 [Mitomycin C] | 0 | 0 | 12.4 | 4.2 | 0.8 | 3.1
2 | Cc1nc2cccc(N)c2c(=O)n1C1CCC(=O)NC1=O (configuration not stated) [CC122] | 0 | 0 | 0 | 0 | 0 | 0
3 | CC[C@]1(O)C[C@@H]2CN(CCc3c([nH]c4ccccc34)[C@@](C(=O)OC)(c3cc4c(cc3OC)N(C)[C@H]3[C@@](O)(C(=O)OC)[C@H](OC(C)=O)[C@]5(CC)C=CCN6CC[C@]43[C@@H]65)C2)C1 [Vinblastine] | 4.9 | 4.2 | 20.8 | 18.9 | 5.2 | 15.7
4 | CC(C)Oc1ccc(-c2nn([C@@H](C)c3oc4ccc(F)cc4c(=O)c3-c3cccc(F)c3)c3ncnc(N)c23)cc1F [TGR-1202] | 0 | 0 | 0 | 0 | 0 | 0
5 | CC[C@H](NC(=O)[C@H](C)NC)C(=O)N1C[C@@H](O)C[C@H]1Cc1c(-c2[nH]c3cc(F)ccc3c2C[C@@H]2C[C@H](O)CN2C(=O)[C@H](CC)NC(=O)[C@H](C)NC)[nH]c2cc(F)ccc12 [Birinapant] | 3.3 | 0 | 3.7 | 15.9 | 12.9 | 5.4
6 | N.N.[Cl][Pt][Cl] [Cisplatin] | 1.6 | 6.5 | 4.7 | 7.2 | 9.4 | 8.5
7 | CCNC(=O)c1noc(-c2cc(C(C)C)c(O)cc2O)c1-c1ccc(CN2CCOCC2)cc1 [Luminespib] | 19.7 | 20.9 | 22.9 | 28.3 | 29.8 | 29.9
8 | NC(=O)Nc1cc(-c2cccc(F)c2)sc1C(=O)N[C@H]1CCCNC1 [AZD7762] | 8.7 | 6.6 | 22.4 | 7.3 | 9.2 | 4.5
9 | CCN(CC)CCNC(=O)c1c(C)[nH]c(/C=C2\C(=O)Nc3ccc(F)cc32)c1C [Sunitinib] | 0 | 0 | 3.2 | 0.7 | 0 | 0
10 | CCS(=O)(=O)N1CC(CC#N)(n2cc(-c3ncnc4[nH]ccc34)cn2)C1 [Baricitinib] | 0 | 0 | 0 | 0 | 1.1 | 0
11 | CC(C)(C)Cn1c(N)nc2ccc(-c3[nH]c(C(C)(C)C)nc3-c3ccc(F)cc3)nc21 [Ralimetinib] | 10.8 | 1.7 | 0 | 0 | 0 | 2.5
12 | C[C@H]1O[C@@H](O[C@H]2[C@@H](O)C[C@H](O[C@H]3[C@@H](O)C[C@H](O[C@H]4CC[C@@]5(C)[C@H](CC[C@@H]6[C@@H]5C[C@@H](O)[C@]5(C)[C@@H](C7=CC(=O)OC7)CC[C@]65O)C4)O[C@@H]3C)O[C@@H]2C)C[C@H](O)[C@@H]1O [Digoxin] | 8.6 | 10.9 | 14.2 | 14.9 | 11.6 | 12.7
13 | COC(=O)c1ccc2c(c1)[nH]c1ncnc(NCCCN3CCCCC3)c12 [UM729] | 1.1 | 0 | 4.1 | 6.9 | 1.1 | 3.5
14 | O=C(Nc1nc2cccc(-c3ccc(CN4CCS(=O)(=O)CC4)cc3)n2n1)C1CC1 [Filgotinib] | 5.1 | 5.2 | 2.4 | 2.9 | 1.3 | 1.7
15 | COc1cc(OC)cc(N(CCNC(C)C)c2ccc3ncc(-c4cnn(C)c4)nc3c2)c1 [Erdafitinib] | 0 | 0 | 0 | 0 | 0 | 0
16 | CC[C@]12C=CCN3CC[C@@]4(c5cc([C@@]6(C(=O)OC)C[C@@H]7C[C@@H](C(C)(F)F)CN(Cc8c6[nH]c6ccccc86)C7)c(OC)cc5N(C)[C@H]4[C@@](O)(C(=O)OC)[C@@H]1OC(C)=O)[C@@H]32 [Vinflunine] | 3.1 | 7 | 7.9 | 6.9 | 3.7 | 3.9
17 | CC(C)NC[C@@H](C(=O)N1CCN(c2ncnc3c2[C@H](C)C[C@H]3O)CC1)c1ccc(Cl)cc1 [Ipatasertib] | 1.5 | 0.5 | 0 | 1.9 | 0 | 1.9
18 | COc1cc2c(Nc3ccc(Cl)c(Cl)c3F)ncnc2cc1OC[C@@H]1C[C@@H]2CN(C)C[C@@H]2C1 [Tesevatinib] | 5 | 1.4 | 11.7 | 3.3 | 0.4 | 3.4
19 | COc1cc(N2CCC(N3CCN(C)CC3)CC2)ccc1Nc1ncnc(Nc2ccccc2S(=O)(=O)C(C)C)n1 [ASP3026] | 7.7 | 2 | 5.7 | 8.6 | 3.1 | 4.7
20 | CN(CC(=O)N(Cc1ccc(C2CCCCC2)cc1)c1ccc(C(=O)O)cc1)S(=O)(=O)c1c(F)c(F)c(F)c(F)c1F [SH-4-54] | 8.5 | 7.8 | 12 | 0 | 6 | 7.3
21 | NS(=O)(=O)NCCNc1nonc1/C(=N/O)Nc1ccc(F)c(Br)c1 [Epacadostat] | 0 | 0 | 0 | 0 | 0 | 0.6
22 | C#Cc1cccc(Nc2ncnc3cc(OCCOC)c(OCCOC)cc23)c1 [Erlotinib] | 1.1 | 2.6 | 0.4 | 3.1 | 0 | 5
23 | CCc1cc2c(cc1N1CCC(N3CCOCC3)CC1)C(C)(C)c1[nH]c3cc(C#N)ccc3c1C2=O [Alectinib] | 0 | 0 | 0 | 0 | 0 | 0
24 | CC(C)C[C@H](NC(=O)[C@H](CCc1ccccc1)NC(=O)CN1CCOCC1)C(=O)N[C@@H](Cc1ccccc1)C(=O)N[C@@H](CC(C)C)C(=O)[C@@]1(C)CO1 [Carfilzomib] | 21.8 | 23.4 | 22.6 | 26.2 | 18 | 17.8
25 | Cc1cc2c(F)c(Oc3ncnn4cc(OC[C@@H](C)O)c(C)c34)ccc2[nH]1 [Brivanib] | 0 | 0 | 0 | 0 | 0 | 0

Row | Structure (SMILES) | drug sensitivity score [1, 3] [DSS] | drug sensitivity score ([1]; co-cultured fibroblast: WI38) [DSS] | drug sensitivity score [1, 4] [DSS] | drug sensitivity score [2, 3] [DSS] | drug sensitivity score ([2]; co-cultured fibroblast: WI38) [DSS] | drug sensitivity score [2, 4] [DSS]
26 | CCNCCS(=O)(=O)NC[C@@]1(c2ccccc2)SC(NC(=O)C(C)(C)C)=NN1C(=O)C(C)(C)C [Litronesib] | 19.2 | 22.8 | 12.2 | 27.8 | 28.8 | 27
27 | Cc1cc(Nc2nc(N[C@@H](C)c3ncc(F)cn3)ncc2Cl)[nH]n1 [AZD1480] | 0.1 | 0.7 | 0 | 0.4 | 0 | 0.4
28 | Cc1cn(-c2cc(NC(=O)c3ccc(C)c(Nc4nccc(-c5cccnc5)n4)c3)cc(C(F)(F)F)c2)cn1 [Nilotinib] | 0 | 8 | 9.8 | 0 | 11 | 3
29 | O[C@H](C[C@H]1c2c(F)cccc2-c2cncn21)[C@H]1CC[C@H](O)CC1 [GDC-0919] | 1.3 | 0 | 0 | 0 | 0 | 1.6
30 | CC1(C)CC[C@]2(NC(=O)C(C)(F)F)CC[C@]3(C)[C@H](C(=O)C=C4[C@@]5(C)C=C(C#N)C(=O)C(C)(C)[C@@H]5CC[C@]43C)[C@@H]2C1 [Omaveloxolone] | 17.2 | 17.8 | 20.1 | 7 | 20 | 21.5
31 | O=c1[nH]cc(F)c(=O)[nH]1 [Fluorouracil] | 2.3 | 5.4 | 5 | 1.3 | 1.4 | 5.5
32 | COC[C@H](NC(=O)c1cnc(C)s1)C(=O)N[C@@H](COC)C(=O)N[C@@H](Cc1ccccc1)C(=O)[C@@]1(C)CO1 [Oprozomib] | 15.7 | 15.1 | 12.6 | 17.7 | 12.7 | 10.8
33 | CNC(=O)c1nn(C)c2c1C(C)(C)Cc1cnc(Nc3ccc(N4CCN(C)CC4)cc3)nc1-2 [Milciclib] | 11.2 | 9.8 | 10 | 13.9 | 12.3 | 11.4
34 | OC[C@H]1O[C@@H](n2cnc3c2N=CNC[C@H]3O)C[C@@H]1O [Pentostatin] | 0 | 0 | 0 | 0 | 2.8 | 0
35 | S=c1[nH]cnc2nc[nH]c12 [Mercaptopurine] | 0.1 | 0.3 | 0 | 0 | 0 | 5.4
36 | COc1ccc(C[C@H](NC(=O)[C@H](C)NC(=O)CN2CCOCC2)C(=O)N[C@@H](Cc2ccccc2)C(=O)C2(C)CO2)cc1 (stereo in doubt) [ONX-0914] | 15.7 | 17.7 | 17.6 | 8.4 | 16.1 | 17.8
37 | Nc1ccccc1NC(=O)c1ccc(CNC(=O)OCc2cccnc2)cc1 [Entinostat] | 6 | 14.3 | 9.2 | 8.5 | 11.7 | 11.1
38 | COc1cc2nccc(Oc3ccc(NC(=O)Nc4cc(C)on4)c(Cl)c3)c2cc1OC [Tivozanib] | 5.7 | 3.8 | 0.4 | 2.8 | 8.9 | 4.9
39 | Cc1cccc(-c2[nH]c(CNc3ccccc3F)nc2-c2ccc3ncnn3c2)n1 [TEW-7197] | 0 | 0 | 0 | 11.2 | 16.2 | 4.2
40 | Nc1cc(C(F)(F)F)c(-c2cc(N3CCOCC3)nc(N3CCOCC3)n2)cn1 [Buparlisib] | 9.1 | 8 | 7.9 | 6.9 | 3.4 | 9.3
41 | CC[C@@]1(O)C(=O)OCc2c1cc1n(c2=O)Cc2cc3c(CN(C)C)c(O)ccc3nc2-1 [Topotecan] | 20.9 | 25.7 | 28 | 22.2 | 23.1 | 30.4
42 | Cc1[nH]nc(C(F)(F)F)c1Cc1sc2c(c1C(=O)N1C[C@](C)(O)CO1)c(=O)n(C)c(=O)n2C(C)C [AZD3965] | 0 | 1.7 | 0 | 0 | 0 | 0
43 | O=C(Nc1ccc(OC(F)(F)Cl)cc1)c1cnc(N2CC[C@@H](O)C2)c(-c2cc[nH]n2)c1 [Asciminib] | 0 | 0 | 0 | 0 | 10.5 | 0
44 | CCN(CC)CCCC(C)Nc1c2ccc(Cl)cc2nc2ccc(OC)cc12 (configuration not stated) [Mepacrine] | 13.8 | 13.8 | 19.1 | 19.8 | 14.2 | 14.4
45 | Nc1cc(F)ccc1NC(=O)c1ccc(CNC(=O)/C=C/c2cccnc2)cc1 [Tucidinostat] | 7.6 | 11.2 | 9.7 | 8 | 4.4 | 11.8
46 | O=C(NOCCO)c1ccc2cncn2c1Nc1ccc(I)cc1F [GDC-0623] | 0 | 0 | 18.9 | 7.5 | 0 | 19.2
47 | CC[C@H](CO)Nc1nc(NCc2ccccc2)c2ncn(C(C)C)c2n1 [Seliciclib] |  |  |  | 4.9 | 6.1 | 
48 | Cc1ccc(NC(=O)c2ccc(CN3CCN(C)CC3)cc2)cc1Nc1nccc(-c2cccnc2)n1 [Imatinib] |  |  |  | 2 | 7.3 | 1.4
49 | CCN(CC)CCCC(C)Nc1ccnc2cc(Cl)ccc12 (configuration not stated) [Chloroquine] |  |  |  | 12.8 | 6.4 | 6.4
50 | Nc1ccn([C@@H]2O[C@H](CO)[C@@H](O)[C@@H]2O)c(=O)n1 [Cytarabine] |  |  |  | 20.1 | 18.3 | 25.2
